According to the RepoRT retention time repository:

experiment: RP, Waters ACQUITY Premier BEH C18, 100 × 2.1 mm, 1.7 µm, 40 °C, 0.3 to 0.4 mL/min, estimated dead time 0.73 min; A: water + 0.1% formic acid; B: acetonitrile + 0.1% formic acid; gradient (min/%B) 0/0.5 0.1/0.5 10/80 10.1/99.5 12/0.5 12.1/0.5 14.5/0.5; settings: stereoisomer not certain

| LC retention time | Compound |
| --- | --- |
| 11.3 min | CC(C=CC=C(C)C=CC1=C(C)C(=O)CCC1(C)C)=CC=CC=C(C)C=CC=C(C)C=CC1=C(C)C(=O)CCC1(C)C [CANTHAXANTHIN] |
| 6.98 min | COc1ccc(-c2oc3cc(OC)c(OC)c(O)c3c(=O)c2OC)cc1O [CASTICIN] |
| 7.13 min | CC(CCC(=O)O)C1CCC2C3C(O)CC4CC(O)CCC4(C)C3CC(O)C12C (centres undefined) [CHOLATE] |
| 5.02 min | O=C(O)CNC(=O)C=Cc1ccccc1 [CINNAMOYLGLYCINE] |
| 4.37 min | O=C(OC1OC2COC(=O)c3cc(O)c(O)c(O)c3-c3c(cc(O)c(O)c3O)C(=O)OC(C2O)C1O)c1cc(O)c(O)c(O)c1 (centres undefined) [CORILAGIN] |
| 6.67 min | CC12CCC(=O)C=C1CCC1C2C(O)CC2(C)C(C(=O)CO)CCC12 (centres undefined) [CORTICOSTERONE] |
| 6.06 min | CC12CCC(=O)C=C1CCC1C2C(O)CC2(C)C1CCC2(O)C(=O)CO (centres undefined) [CORTISOL] |
| 0.905 min | CN(CC(=O)O)C(=N)N [CREATINE] |
| 7.93 min | C=C1CC2(O)OC3(CC2C(C)C)C(C)CCC13 (centres undefined) [CURCUMOL] |
| 5.27 min | O=C(O)C1CCCCC1 [CYCLOHEXANECARBOXYLIC ACID] |
| 1.41 min | Nc1ccn(C2OC(CO)C(O)C2O)c(=O)n1 (centres undefined) [CYTIDINE] |
| 5.4 min | O=c1c(-c2ccc(O)cc2)coc2cc(O)ccc12 [DAIDZEIN] |
| 4.08 min | O=c1c(-c2ccc(O)cc2)coc2cc(OC3OC(CO)C(O)C(O)C3O)ccc12 (centres undefined) [DAIDZIN] |
| 6.92 min | CCCCCCCCCC(=O)OC(CC(=O)[O-])C[N+](C)(C)C (centres undefined) [DECANOYLCARNITINE] |
| 3.33 min | Nc1ncnc2c1ncn2C1CC(O)C(CO)O1 (centres undefined) [DEOXYADENOSINE] |
| 7.67 min | CC(CCC(=O)O)C1CCC2C3CCC4CC(O)CCC4(C)C3CC(O)C12C (centres undefined) [DEOXYCHOLATE] |
| 1.7 min | O=c1ccn(C2CC(O)C(COP(=O)(O)O)O2)c(=O)[nH]1 (centres undefined) [DEOXYURIDINE-MONOPHOSPHATE] |
| 3.27 min | O=c1ccn(C2CC(O)C(CO)O2)c(=O)[nH]1 (centres undefined) [DEOXYURIDINE] |
| 5.08 min | COc1cc(CCC(=O)O)ccc1O [DIHYDROFERULIC ACID] |
| 1.37 min | O=C1CCNC(=O)N1 [DIHYDROURACIL] |
| 1.74 min | NCCc1ccc(O)c(O)c1 [DOPAMINE] |
| 1.82 min | Cc1cn(C2CC(O)C(COP(=O)(O)OP(=O)(O)OC3OC(CO)C(O)C(O)C3O)O2)c(=O)[nH]c1=O [DTDP-D-GLUCOSE] |
| 6.68 min | O=C1OCC(Cc2cccc(O)c2)C1Cc1cccc(O)c1 (centres undefined) [ENTEROLACTONE] |
| 7.2 min | CCOC(=O)Cc1c[nH]c2ccccc12 [ETHYL 3-INDOLEACETATE] |
| 3.85 min | CCC(C(=O)O)C(=O)O [ETHYLMALONATE] |
| 5.17 min | COc1cc(C=CC(=O)O)ccc1O [FERULATE] |
| 4.02 min | Nc1nc2ncc(CNc3ccc(C(=O)NC(CCC(=O)O)C(=O)O)cc3)nc2c(=O)[nH]1 (centres undefined) [FOLATE] |
| 6.69 min | Cc1c(O)cc2c(c1C)OC(C)(CCC(=O)O)CC2 (centres undefined) [GAMMA-CEHC] |
| 3.65 min | NC(CCC(=O)NC(Cc1ccccc1)C(=O)O)C(=O)O (centres undefined) [GAMMA-GLUTAMYLPHENYLALANINE] |

The remaining lines, values behind:

| Compound | LC retention time |
| --- | --- |
| CCCCC(CC)COC(=O)c1ccccc1C(=O)OCC(CC)CCCC (centres undefined) [BIS(2-ETHYLHEXYL)PHTHALATE] | 10.7 min |
| CCCC(=O)O [BUTANOATE] | 3.99 min |
| CCCC(=O)OC(CC(=O)[O-])C[N+](C)(C)C (centres undefined) [BUTYRYLCARNITINE] | 3.89 min |
| Cn1c(=O)c2c(ncn2C)n(C)c1=O [CAFFEINE] | 4.3 min |
| COc1cc(CNC(=O)CCCCC=CC(C)C)ccc1O [CAPSAICIN] | 7.3 min |
| CC(C)c1cc2c(c(O)c1O)C1(C(=O)O)CCCC(C)(C)C1CC2 (centres undefined) [CARNOSIC ACID] | 8.06 min |
| COc1ccccc1C=CC=O [CASSIASTEAROPTENE] | 7.94 min |
| NCCOP(=O)(O)OP(=O)(O)OCC1OC(n2ccc(N)nc2=O)C(O)C1O (centres undefined) [CDP-ETHANOLAMINE] | 0.882 min |
| CC1=C(O)C(=O)C=C2C1=CC=C1C2(C)CCC2(C)C3CC(C)(C(=O)O)CCC3(C)CCC12C (centres undefined) [CELASTROL] | 8.6 min |
| O=C(O)C[C@H]1CC[C@@H](O)CC1 [CIS-4-HYDROXYCYCLOHEXYLACETIC ACID] | 4.12 min |
| CC12CCC(=O)C=C1CCC1C2CCC2(C)C1CCC2(O)C(=O)CO (centres undefined) [CORTEXOLONE] | 6.74 min |
| CC(=O)OCC(=O)C1(O)CCC2C3CCC4=CC(=O)CCC4(C)C3C(O)CC21C (centres undefined) [CORTISOL 21-ACETATE] | 6.92 min |
| CC12CCC(=O)C=C1CCC1C2C(=O)CC2(C)C1CCC2(O)C(=O)CO (centres undefined) [CORTISONE] | 6.12 min |
| O=c1cc(-c2ccc(O)cc2)oc2cc(OC3OC(CO)C(O)C(O)C3O)cc(O)c12 (centres undefined) [COSMOSIIN] | 4.75 min |
| C=C1C(=O)OC2C=C(C)CCC=C(C)CCC12 (centres undefined) [COSTUNOLIDE] | 7.65 min |
| O=c1oc2cc(O)ccc2c2oc3cc(O)ccc3c12 [COUMESTEROL] | 6.04 min |
| O=C(C=Cc1ccc(O)c(O)c1)OC1C(O)CC(O)(C(=O)O)CC1O (centres undefined) [CRYPTOCHLOROGENIC ACID] | 3.67 min |
| CC(=O)OC(C)(C)C=CC(=O)C(C)(O)C1C(O)CC2(C)C3CC=C4C(CC(O)C(=O)C4(C)C)C3(C)C(=O)CC12C (centres undefined) [CUCURBITACIN B] | 7.07 min |
| O=C(O)CCCCCCCCCCCNC(=O)NC1CCCCC1 [CUDA] | 7.47 min |
| COc1cc(C=CC(=O)CC(=O)C=Cc2ccc(O)c(OC)c2)ccc1O [CURCUMIN] | 7.18 min |
| Nc1ncnc2c1ncn2C1OC2COP(=O)(O)OC2C1O (centres undefined) [CYCLIC AMP] | 3.35 min |
| Nc1nc2c(ncn2C2OC3COP(=O)(O)OC3C2O)c(=O)[nH]1 (centres undefined) [CYCLIC GMP] | 3.35 min |
| Nc1ccn(C2OC(CO)C3OP(=O)(O)OC32)c(=O)n1 (centres undefined) [CYTIDINE 2',3'-CYCLIC PHOSPHATE] | 0.94 min |
| Nc1ccn(C2OC(COP(=O)(O)O)C(O)C2O)c(=O)n1 (centres undefined) [CYTIDINE MONOPHOSPHATE] | 0.941 min |
| CNCC(O)c1ccc(O)cc1 [D-SYNEPHRINE] | 0.927 min |
| CCCCCC1CCCC(=O)O1 (centres undefined) [DELTA-DECALACTONE] | 7.1 min |
| Nc1ncnc2c1ncn2C1CC(O)C(COP(=O)(O)O)O1 (centres undefined) [DEOXYADENOSINE MONOPHOSPHATE] | 2.07 min |
| C[N+](C)(C)CCCC(=O)[O-] [DEOXYCARNITINE] | 0.901 min |

| Compound | LC retention time |
| --- | --- |
| CC(CCC(=O)NCC(=O)O)C1CCC2C3CCC4CC(O)CCC4(C)C3CC(O)C12C (centres undefined) [DEOXYCHOLIC ACID GLYCINE CONJUGATE] | 7.24 min |
| CC(=O)OCC(=O)C1CCC2C3CCC4=CC(=O)CCC4(C)C3CCC12C (centres undefined) [DEOXYCORTICOSTERONE ACETATE] | 7.64 min |
| Nc1ccn(C2CC(O)C(COP(=O)(O)O)O2)c(=O)n1 (centres undefined) [DEOXYCYTIDINE MONOPHOSPHATE] | 1.37 min |
| Nc1ccn(C2CC(O)C(CO)O2)c(=O)n1 (centres undefined) [DEOXYCYTIDINE] | 1.78 min |
| Nc1nc2c(ncn2C2CC(O)C(COP(=O)(O)O)O2)c(=O)[nH]1 (centres undefined) [DEOXYGUANOSINE-MONOPHOSPHATE] | 1.47 min |
| Nc1nc2c(ncn2C2CC(O)C(CO)O2)c(=O)[nH]1 (centres undefined) [DEOXYGUANOSINE] | 3.39 min |
| CC(C)(COP(=O)(O)OP(=O)(O)OCC1OC(n2cnc3c(N)ncnc32)C(O)C1O)C(O)C(=O)NCCC(=O)NCCS (centres undefined) [DEPHOSPHO-COA] | 3.69 min |
| CC(C)=CCCC(C)C1CCC2C3CC=C4CC(O)CCC4(C)C3CCC12C (centres undefined) [DESMOSTEROL] | 9.25 min |
| CC1NC(=O)NC1CCCCCC(=O)O (centres undefined) [DETHIOBIOTIN] | 4.85 min |
| CCCCCCCCCC(=O)OCC(COP(=O)([O-])OCC[N+](C)(C)C)OC(=O)CCCCCCCCC (centres undefined) [DIDECANOYL-GLYCEROPHOSPHOCHOLINE] | 8.51 min |
| COc1cc(CNC(=O)CCCCCCC(C)C)ccc1O [DIHYDROCAPSAICIN] | 7.49 min |
| O=C1c2c(O)cc(O)cc2OCC1c1ccc(O)cc1 (centres undefined) [DIHYDROGENISTEIN] | 5.97 min |
| CC1CNC(=O)NC1=O (centres undefined) [DIHYDROTHYMINE] | 1.26 min |
| COC(=O)CCC(=O)OC [DIMETHYL SUCCINATE] | 3.97 min |
| CC(C)(C(=O)O)C(=O)O [DIMETHYLMALONIC ACID] | 3.97 min |
| COc1ccc(-c2cc(=O)c3c(O)cc(O)cc3o2)cc1O [DIOSMETIN] | 6.12 min |
| CCCCCCCCC=CCCCCCCCC(=O)O [ELAIDATE] | 10 min |
| Cc1cc(O)c2c(c1)C(=O)c1cc(O)cc(O)c1C2=O [EMODIN] | 7.52 min |
| OCC(Cc1cccc(O)c1)C(CO)Cc1cccc(O)c1 (centres undefined) [ENTERODIOL] | 5.95 min |
| Oc1ccc(C2COc3cc(O)ccc3C2)cc1 (centres undefined) [EQUOL] | 6.57 min |
| CC12CCC3c4ccc(O)cc4CCC3C1CCC2O (stereo not drawn) [ESTRADIOL-17ALPHA] | 7.15 min |
| Cc1cc2nc3c(=O)[nH]c(=O)nc-3n(CC(O)C(O)C(O)COP(=O)(O)OP(=O)(O)OCC3OC(n4cnc5c(N)ncnc54)C(O)C3O)c2cc1C (centres undefined) [FAD] | 4.15 min |
| Cc1cc2nc3c(=O)[nH]c(=O)nc-3n(CC(O)C(O)C(O)COP(=O)(O)O)c2cc1C (centres undefined) [FLAVIN MONONUCLEOTIDE] | 3.73 min |
| O=c1cc(-c2ccccc2)oc2ccccc12 [FLAVONE] | 7.23 min |
| COc1ccc(-c2coc3cc(O)ccc3c2=O)cc1 [FORMONONETIN] | 6.65 min |
| O=C(O)c1cc(O)c(O)c(O)c1 [GALLIC ACID] | 1.34 min |
| CC(CC(=O)CC(C)C1CC(O)C2(C)C3=C(C(=O)CC12C)C1(C)CCC(=O)C(C)(C)C1CC3O)C(=O)O (centres undefined) [GANODERIC ACID A] | 6.82 min |
